This note sets out measurements from patent publication EP4711365A1 (Shanghai Hansoh Biomedical Co., Ltd., priority 2023, dated 2024).

In general, pIC50 refers to the IC50 on a negative log10 scale, so that one unit is a factor of ten. Low values mean a high IC50, high ones a low IC50. By AUC(0-t) is commonly meant the area under the concentration-time curve up to a stated or last time point. A high value points to high exposure. A word on the Cmax: it is the peak of the concentration-time curve. The term Tmax denotes the time at which the peak concentration occurs. A word on the half-life: it is the time in which the quantity being followed falls by half.

Structures are written as SMILES. pIC50: −log10 of the molar value.

Data set [1] relates to Groα secretion by HT-29 cells. Description: Inhibition of Groα secretion by HT-29 cells stimulated with IL-17A (ELISA). In kind it is cell-based, Human. Particulars: Homo sapiens, IL-17A 30 ng/ml, 48 hours, Groα in supernatant. The gist of the method: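 HT-29 cells (10,000/well) were cultured overnight, then given compound pre-mixed 30 min with IL-17A (final 30 ng/ml) and incubated 48 hours at 37°C. Groα in supernatant was measured by ELISA at 450 nm; inhibition relative to IL-17A-stimulated control, IC50 from four-parameter fit.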
(In general: In an ELISA, binding on a coated surface is turned into a signal by an enzyme label.)

Data set [2] deals with T1, human IL-17RA and IL-17A proteins (Homo sapiens, UniProt Q16552).
T1 sequence (Q16552 24-155): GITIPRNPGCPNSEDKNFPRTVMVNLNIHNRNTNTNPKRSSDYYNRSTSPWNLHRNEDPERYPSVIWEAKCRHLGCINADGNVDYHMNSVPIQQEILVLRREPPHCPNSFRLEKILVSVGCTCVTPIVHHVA
Description: Competitive ELISA: blocking of binding between human IL-17RA and IL-17A. Particulars: coated IL-17A, IL-17RA 5 nM. The method, then:
Test example 1 Assay for competitive binding effect between compounds of the present invention and human IL-17 receptor for ligand
1. Experimental objective: to quantitatively determine the blocking effect of the compound on the binding between human IL-17RA and IL-17A proteins using competitive ELISA under in vitro conditions. 2. Experimental instruments and reagents: 2.1 Instruments:
2.2 Reagents: 3. Experimental method: IL-17A at 0.0625 µg/mL was coated in a 96-well plate at 4°C overnight at 100 µL per well. The plate was washed with PBST (300 µL/well x 4), and then blocked at 24°C for 2 h by adding 300 µL of ELISA Blocker blocking buffer to each well. The plate was further washed under the same conditions. 80 µL of PBS solution containing 1% BSA and 10 µL of 10× test compound solution were added to each well and mixed uniformly, and then the mixture was incubated at room temperature for 1 hour. After that, 10 µL of IL-17RA solution was added to a final concentration of 5 nM and mixed uniformly, and then the mixture was incubated at 24°C for 1 h. The corresponding concentration and volume of DMSO solution without compounds was added to positive control wells, and 1% BSA solution without IL-17RA was added to negative control wells.
After the plate was washed four times, 100 µL of the anti-Fc tag HRP-conjugated antibody was added, and the mixture was incubated at 37°C for 1 h. After the plate was washed four times, 100 µL of TMB substrate was added to each well, and the mixture was incubated at 37°C in the dark. After colour development was completed, the reaction was terminated by adding 100 µL of stop solution to each well, and the absorbance was measured at wavelengths of 450 nm and 570 nm using a microplate reader.
• 1) Inhibition rate (%): The original data (OD450-OD570) was calculated according to the following formula to obtain the inhibition rate. Inhibition rate% = [(average value of positive control wells - value of sample wells)/(average value of positive control wells - average value of negative control wells)] × 100, where the positive control wells are wells without compounds, and the negative control wells are wells without IL-17RA protein solution. • 2) Curve fitting: Log(inhibitor) vs. response -- Variable slope (four parameters) in GraphPad Prism 8 was used for fitting equation analysis of the compound concentration and the corresponding inhibition rate, and the curve was fitted to obtain the IC50 value of the compound. The fitting calculation equation was Y = Bottom + (Top - Bottom) / (1 + 10^((LogIC50 - X) * HillSlope)).

The nature of data set [3]: Pharmacokinetic assay in Wistar rats, oral. Particulars: rat, plasma, 30 mg/kg.

As to `CCc1nonc1C(=O)NC(C(=O)Nc1ncc(C(COC)N2CC(C(F)(F)F)NC2=O)s1)C1CCC(C)CC1` (centres unmarked) [Example 521], the pIC50 in data set [1] was 8.70; in data set [2] it was 8.89.
`COCC(c1cnc(NC(=O)C(NC(=O)OC2CC2)C2CCC(C)CC2)s1)N1CC(C(F)(F)F)NC1=O` (centres unmarked) [Example 522] showed a pIC50 in data set [2] of 8.21.
`C[C@H]1CC[C@H]([C@H](NC(=O)OC2CC2)C(=O)Nc2ncc([C@@H](CC3CC3)N3CC(F)(F)CNC3=O)s2)CC1` [Example 524]: the figures for the pIC50 in data set [1] and in data set [2] were 8.03 and 8.44, respectively.
In the case of `CCc1nonc1C(=O)N[C@H](C(=O)Nc1ncc([C@@H](C2CCOCC2)n2cc(Cl)ccc2=O)s1)[C@H]1CC[C@H](C)CC1` [Example 532], the pIC50 in data set [1] and in data set [2] was 8.10 throughout.
Compound `CCc1nonc1C(=O)N[C@H](C(=O)Nc1ncc([C@@H](COC)N2CC(F)(F)CNC2=O)s1)[C@H]1CC[C@H](C)CC1` [Example 556] showed a pIC50 in data set [1] of 8.34. Also, in data set [3], the AUC(0-t) was found to be 22100 ng·h/mL, the Cmax came out at 2390 ng/mL, the Tmax was 2 h and the half-life is 138 min. In data set [2], this compound had a pIC50 of 8.74.
With `[2H]C1([2H])NC(=O)N([C@H](COC)c2cnc(NC(=O)[C@@H](NC(=O)OC3CC3)[C@H]3CC[C@H](C)CC3)s2)C([2H])([2H])C1(F)F` [Example 559], in data set [3], the AUC(0-t) stood at 12700 ng·h/mL, the Cmax was 2190 ng/mL, the Tmax came out at 2 h and the half-life was 162 min. The pIC50 in data set [2] was 8.37.
As for `COC[C@H](c1cnc(NC(=O)[C@@H](NC(=O)c2nonc2C)[C@H]2CC[C@H](C)CC2)s1)n1cc(Cl)ccc1=O` [Example 569], in data set [2], the pIC50 was 8.30.
Still for that read-out and setting: under `COC[C@H](c1cnc(NC(=O)[C@@H](NC(=O)C2(F)CC2)[C@H]2CC[C@H](C)CC2)s1)N1CC(F)(F)CNC1=O` [Example 592] stands 8.19.
With `CC1CCC([C@H](NC(=O)C2(F)CC2)C(=O)Nc2ncc(C(CN3CCOCC3)N3CC(F)(F)CNC3=O)s2)CC1` (some centres unmarked) [Example 601], the negative-log IC50 (pIC50) in data set [1] is 8.12; in data set [2], 8.39.
`[2H]C1([2H])NC(=O)N([C@H](COC)c2cnc(NC(=O)[C@@H](NC(=O)C3(F)CC3)[C@H]3CC[C@H](C)CC3)s2)C([2H])([2H])C1(F)F` [Example 688, N-((S)-2-((5-((R)-1-(5,5-difluoro-2-carbonyltetrahydropyrimidin-1(2H)-yl-4,4,6,6-d4)-2-methoxyethyl)thiazol-2-yl)amino)-1-((1r,4S)-4-methylcyclohexyl)-2-carbonylethyl)-1-fluorocyclopropane-1-carboxamide]: the pIC50 in data set [2] was 8.29.
For the compound `C[C@H]1CC[C@H]([C@H](NC(=O)C2(F)CC2)C(=O)Nc2ncc([C@@H](CN3CCO[C@H](CF)C3)N3CC(F)(F)CNC3=O)s2)CC1` [Example 696, N-((S)-2-((5-((R)-1-(5,5-difluoro-2-oxotetrahydropyrimidin-1(2H)-yl)-2-((S)-2-(fluoromethyl)morpholino)ethyl)thiazol-2-yl)amino)-1-((1r,4S)-4-methylcyclohexyl)-2-oxoethyl)-1-fluorocyclopropane-1-carboxamide], the pIC50 was 8.70 in data set [1] and 8.30 in data set [2].
For `C[C@H]1CC[C@H]([C@H](NC(=O)C(F)(F)C2CC2)C(=O)Nc2ncc([C@@H](CN3CCO[C@H](CF)C3)N3CC(F)(F)CNC3=O)s2)CC1` [Example 700], in that order: 8.59 and 8.47.
`C[C@H]1CC[C@H]([C@H](NC(=O)C2(F)CC2)C(=O)Nc2ncc([C@@H](CN3CCO[C@@H](CF)C3)N3CC(F)(F)CNC3=O)s2)CC1` [Example 703]: the pIC50 in data set [1] is 8.15; in data set [2], 8.12.
In the case of `CC[C@@H]1CN(C[C@H](c2cnc(NC(=O)[C@@H](NC(=O)C3(F)CC3)[C@H]3CC[C@H](C)CC3)s2)N2CC(F)(F)CNC2=O)CCO1` [Example 704], the pIC50 in data set [1] is 8.19; in data set [2], 8.31.
Taken in the same sequence, the figures for `CC1(C)CN(C[C@H](c2cnc(NC(=O)[C@@H](NC(=O)C3(F)CC3)[C@H]3CC[C@H](C)CC3)s2)N2CC(F)(F)CNC2=O)CCO1` [Example 718] were 8.10 and 8.30.
In the case of `C[C@H]1CC[C@H]([C@H](NC(=O)C2(F)CC2)C(=O)Nc2ncc([C@@H](CN3CCOC4(CC4)C3)N3CC(F)(F)CNC3=O)s2)CC1` [Example 721], the pIC50 in data set [2] is 8.40.
Turning to `CC1(C)COCCN1C[C@H](c1cnc(NC(=O)[C@@H](NC(=O)C2(F)CC2)[C@H]2CC[C@H](C)CC2)s1)N1CC(F)(F)CNC1=O` [Example 723], the pIC50 in data set [1] is 8.40; in data set [2] it was 8.30.
Regarding `C[C@@H]1CN(C[C@H](c2cnc(NC(=O)[C@@H](NC(=O)C3(F)CC3)[C@H]3CC[C@H](C)CC3)s2)N2CC(F)(F)CNC2=O)C[C@H](C)O1` [Example 724], the pIC50 in data set [1] was 8.40; in data set [2], 8.22.
For `C[C@@H]1CN(C[C@H](c2cnc(NC(=O)[C@@H](NC(=O)C(F)(F)C3CC3)[C@H]3CC[C@H](C)CC3)s2)N2CC(F)(F)CNC2=O)C[C@H](C)O1` [Example 725], in that order: 8.60 and 8.25.
In the case of `C[C@@H]1CN(C[C@H](c2cnc(NC(=O)[C@@H](NC(=O)C3(F)CC3)[C@H]3CC[C@H](C)CC3)s2)N2CC(F)(F)CNC2=O)C[C@@H](C)O1` [Example 726], the pIC50 in data set [1] was 8.74; in data set [2] it was 8.32.
With `C[C@@H]1CN(C[C@H](c2cnc(NC(=O)[C@@H](NC(=O)C(F)(F)C3CC3)[C@H]3CC[C@H](C)CC3)s2)N2CC(F)(F)CNC2=O)C[C@@H](C)O1` [Example 727], the pIC50 in data set [1] was 8.92; in data set [2], 8.48.
On to `C[C@H]1CN(C[C@H](c2cnc(NC(=O)[C@@H](NC(=O)C3(F)CC3)[C@H]3CC[C@H](C)CC3)s2)N2CC(F)(F)CNC2=O)C[C@H](C)O1` [Example 730], for which the pIC50 in data set [2] is 8.17.
As for `C[C@H]1CN(C[C@H](c2cnc(NC(=O)[C@@H](NC(=O)C3(F)CC3)[C@H]3CC[C@H](C)CC3)s2)N2CC(F)(F)CNC2=O)[C@@H](C)CO1` [Example 734], the results for the pIC50 in data set [1] and in data set [2] were 8.70 and 8.54, respectively.
For `C[C@H]1CC[C@H]([C@H](NC(=O)C2(F)CC2)C(=O)Nc2ncc([C@@H](CN3CCC(F)CC3)N3CC(F)(F)CNC3=O)s2)CC1` [Example 760], in that order: 8.24 and 8.15.
For the compound `COC1CCN(C[C@H](c2cnc(NC(=O)[C@@H](NC(=O)C3(F)CC3)[C@H]3CC[C@H](C)CC3)s2)N2CC(F)(F)CNC2=O)CC1` [Example 777], the pIC50 in data set [1] is 8.28; in data set [2], 8.10.
Take `[2H]C([2H])([2H])O[C@@H]1CCN(C[C@H](c2cnc(NC(=O)[C@@H](NC(=O)C3(F)CC3)[C@H]3CC[C@H](C)CC3)s2)N2CC(F)(F)CNC2=O)C[C@@H]1F` [Example 781]: the pIC50 in data set [1] is 8.00; in data set [2], 8.30.
For `[2H]C([2H])([2H])O[C@H]1CCN(C[C@H](c2cnc(NC(=O)[C@@H](NC(=O)C3(F)CC3)[C@H]3CC[C@H](C)CC3)s2)N2CC(F)(F)CNC2=O)C[C@H]1F` [Example 782], in that order: 8.40 and 8.40.
Take `C[C@H]1CN(C[C@H](c2cnc(NC(=O)[C@@H](NC(=O)C3(F)CC3)[C@H]3CC[C@H](C)CC3)s2)N2CC(F)(F)CNC2=O)CCO1` [Example 1013]: the pIC50 in data set [1] and in data set [2] was 8.05 throughout.
On to `C[C@@H]1COCCN1C[C@H](c1cnc(NC(=O)[C@@H](NC(=O)C2(F)CC2)[C@H]2CC[C@H](C)CC2)s1)N1CC(F)(F)CNC1=O` [Example 1015], for which the pIC50 was 8.22 in data set [1] and 8.40 in data set [2].
